Measured values: US20230295181A1, “INHIBITOR OF APOPTOSIS (IAP) PROTEIN ANTAGONISTS” (Sanford Burnham Prebys Medical Discovery Institute, priority 2020, published 2023)
Counter-ions that a name gives are not always drawn.

System: SKOV-3 cancer cell lines
Assay: SKOV-3 cell viability after treatment with 10 μM test compound
Type: cell-based
Conditions: 10 micromolar test compound
Procedure: SKOV-3 cancer cell lines were treated with a test compound, either as a pure enantiomer or a mixture of stereoisomers, at a concentration of 10 μM. Cell viability was evaluated following treatment with a compound as disclosed in Table B. Viability of cancer cells following treatment is indicated according to the following legend:
A=0-25% viability B=26-50% viability C=>50% viability

SMILES	% viability after treatment with 10 micromolar of test compound (SKOV-3 cells)
CN[C@@H](C)C(=O)N[C@H]1Cc2cc(OC)ccc2[C@H]2CC(C)(C)C(C(=O)N[C@@H]3CCCc4ccccc43)N2C1=O (stereo partly shown) [Compound 34]	C (C=>50% viability)
CN[C@@H](C)C(=O)N[C@H]1Cc2cc(OC)ccc2[C@H]2CC(C)(C)C(C(=O)N[C@@H]3CCCc4ccccc43)N2C1=O (stereo partly shown) [Compound 7]	B (B=26-50% viability)

Same assay, conditions: 10 micromolar test compound, hydrochloride

SMILES	% viability after treatment with 10 micromolar of test compound (SKOV-3 cells)
CN[C@@H](C)C(=O)N[C@H]1CCO[C@H]2CC(CCc3ccccc3)(CCc3ccccc3)[C@@H](C(=O)N[C@@H]3CCCc4ccccc43)N2C1=O [Compound 26, (4S,9aS)-4-((S)-2-(methylamino)propanamido)-5-oxo-8,8-diphenethyl-N—((R)-1,2,3,4-tetrahydronaphthalen-1-yl)octahydropyrrolo[2,1-b][1,3]oxazepine-7-carboxamide hydrochloride]	C (C=>50% viability)
CN[C@@H](C)C(=O)N[C@H]1CCO[C@H]2CC(CCc3ccccc3)(CCc3ccccc3)[C@@H](C(=O)N[C@@H]3CCCc4ccccc43)N2C1=O [Compound 25, (4S,9aS)-4-((S)-2-(methylamino)propanamido)-5-oxo-8,8-diphenethyl-N—((R)-1,2,3,4-tetrahydronaphthalen-1-yl)octahydropyrrolo[2,1-b][1,3]oxazepine-7-carboxamide hydrochloride]	B (B=26-50% viability)
CCC1(CC)C[C@@H]2OCC[C@H](NC(=O)[C@H](C)NC)C(=O)N2[C@@H]1C(=O)NC(c1ccccc1)c1ccccc1 [Compound 58, (4S)—N-benzhydryl-8,8-diethyl-4-((S)-2-(methylamino)propanamido)-5-oxooctahydropyrrolo[2,1-b][1,3]oxazepine-7-carboxamide hydrochloride]	B (B=26-50% viability)
C=CCC1(CC=C)C[C@@H]2OCC[C@H](NC(=O)[C@H](C)NC)C(=O)N2[C@@H]1C(=O)NC(c1ccccc1)c1ccccc1 [Compound 51, (4S)-8,8-diallyl-N-benzhydryl-4-((S)-2-(methylamino)propanamido)-5-oxooctahydropyrrolo[2,1-b][1,3]oxazepine-7-carboxamide hydrochloride]	B (B=26-50% viability)
CCC1(CC)C[C@@H]2OCC[C@H](NC(=O)[C@H](C)NC)C(=O)N2[C@@H]1C(=O)NC(c1ccccc1)c1ccccc1 [Compound 59, (4S)—N-benzhydryl-8,8-diethyl-4-((S)-2-(methylamino)propanamido)-5-oxooctahydropyrrolo[2,1-b][1,3]oxazepine-7-carboxamide hydrochloride]	A (A=0-25% viability)
C=CCC1(CC=C)C[C@@H]2SCC[C@H](NC(=O)[C@H](C)NC)C(=O)N2[C@@H]1C(=O)N[C@@H]1CCCc2ccccc21 [Compound 31, (4S,9aS)-8,8-diallyl-4-((S)-2-(methylamino)propanamido)-5-oxo-N—((R)-1,2,3,4-tetrahydronaphthalen-1-yl)octahydropyrrolo[2,1-b][1,3]thiazepine-7-carboxamide hydrochloride]	B (B=26-50% viability)
C=CCC1C[C@@H]2SCC[C@H](NC(=O)[C@H](C)NC)C(=O)N2[C@@H]1C(=O)N[C@@H]1CCCc2ccccc21 (stereo partly drawn) [Compound 30, (4S,9aS)-8,8-allyl-4-((S)-2-(methylamino)propanamido)-5-oxo-N—((R)-1,2,3,4-tetrahydronaphthalen-1-yl)octahydropyrrolo[2,1-b][1,3]thiazepine-7-carboxamide hydrochloride]	B (B=26-50% viability)
CCC1(CC)C[C@@H]2SCC[C@H](NC(=O)[C@H](C)NC)C(=O)N2[C@@H]1C(=O)N[C@@H]1CCCc2ccccc21 [Compound 37, (4S,9aS)-8,8-diethyl-4-((S)-2-(methylamino)propanamido)-5-oxo-N—((R)-1,2,3,4-tetrahydronaphthalen-1-yl)octahydropyrrolo[2,1-b][1,3]thiazepine-7-carboxamide hydrochloride]	B (B=26-50% viability)
CCC1(CC)C[C@@H]2SCC[C@H](NC(=O)[C@H](C)NC)C(=O)N2[C@@H]1C(=O)N[C@@H]1CCCc2ccccc21 [Compound 35, (4S,9aS)-8,8-diethyl-4-((S)-2-(methylamino)propanamido)-5-oxo-N—((R)-1,2,3,4-tetrahydronaphthalen-1-yl)octahydropyrrolo[2,1-b][1,3]thiazepine-7-carboxamide hydrochloride]	A (A=0-25% viability)
C=CCC1(CC=C)C[C@@H]2OCC[C@H](NC(=O)[C@H](C)NC)C(=O)N2[C@@H]1C(=O)NC(c1ccccc1)c1ccccc1 [Compound 48, (4S)-8,8-diallyl-N-benzhydryl-4-((S)-2-(methylamino)propanamido)-5-oxooctahydropyrrolo[2,1-b][1,3]oxazepine-7-carboxamide hydrochloride]	C (C=>50% viability)
CCC1(CC)C[C@@H]2SCC[C@H](NC(=O)[C@H](C)NC)C(=O)N2[C@@H]1C(=O)N[C@@H]1CCCc2ccccc21 [Compound 39, (4S,9aS)-8,8-diethyl-4-((S)-2-(methylamino)propanamido)-5-oxo-N—((R)-1,2,3,4-tetrahydronaphthalen-1-yl)octahydropyrrolo[2,1-b][1,3]thiazepine-7-carboxamide hydrochloride]	B (B=26-50% viability)
CN[C@@H](C)C(=O)N[C@H]1CCS[C@H]2CC(C(C)C)(C(C)C)[C@@H](C(=O)N[C@@H]3CCCc4ccccc43)N2C1=O [Compound 42, 4S,9aS)-8,8-diisopropyl-4-((S)-2-(methylamino)propanamido)-5-oxo-N—((R)-1,2,3,4-tetrahydronaphthalen-1-yl)octahydropyrrolo[2,1-b][1,3]thiazepine-7-carboxamide hydrochloride]	C (C=>50% viability)
C=CCC1(CC=C)C[C@@H]2OCC[C@H](NC(=O)[C@H](C)NC)C(=O)N2[C@@H]1C(=O)NC(c1ccccc1)c1ccccc1 [Compound 49, (4S)-8,8-diallyl-N-benzhydryl-4-((S)-2-(methylamino)propanamido)-5-oxooctahydropyrrolo[2,1-b][1,3]oxazepine-7-carboxamide hydrochloride]	B (B=26-50% viability)
CN[C@@H](C)C(=O)N[C@H]1CCO[C@H]2CC(CCc3ccccc3)(CCc3ccccc3)[C@@H](C(=O)N[C@@H]3CCCc4ccccc43)N2C1=O [Compound 24, (4S,9aS)-4-((S)-2-(methylamino)propanamido)-5-oxo-8,8-diphenethyl-N—((R)-1,2,3,4-tetrahydronaphthalen-1-yl)octahydropyrrolo[2,1-b][1,3]oxazepine-7-carboxamide hydrochloride]	B (B=26-50% viability)

Same assay, conditions: Homo sapiens, SK-OV-3, 10 micromolar test compound; SKOV-3 cells

SMILES	viability at 10 µM
CN[C@@H](C)C(=O)N[C@@H]1C(=O)N2[C@H](CC(C)[C@H]2C(=O)N[C@@H]2CCCc3ccccc32)OC2CCCCC21 (stereo partly shown) [Compound 64, hydrochloride]	0 to 25%
CN[C@@H](C)C(=O)N[C@H]1CCO[C@H]2CC(CCc3ccccc3)(CCc3ccccc3)C(C(=O)N[C@@H]3CCCc4ccccc43)N2C1=O (stereo partly drawn) [Compound 23, (4S,9aS)-4-((S)-2-(methylamino)propanamido)-5-oxo-8,8-diphenethyl-N—((R)-1,2,3,4-tetrahydronaphthalen-1-yl)octahydropyrrolo[2,1-b][1,3]oxazepine-7-carboxamide hydrochloride]	26 to 50%
CN[C@@H](C)C(=O)N[C@H]1Cc2c([nH]c3ccccc23)[C@H]2CC(C)(C)C(C(=O)N[C@@H]3CCCc4ccccc43)N2C1=O (stereo in doubt) [Compound 3, (3S, 6S,12bR)-2,2-dimethyl-6-((S)-2-(methylamino)propanamido)-5-oxo-N—((R)-1,2,3,4-tetrahydronaphthalen-1-yl)-1,2,3,5,6,7,12,12b-octahydropyrrolo[1′,2′:1,2]azepino[3,4-b]indole-3-carboxamide hydrochloride]	> 50%
CN[C@@H](C)C(=O)N[C@H]1CCOC2c3ccncc3C(C(=O)N[C@@H]3CCCc4ccccc43)N2C1=O (stereo partly drawn) [Compound 4, (4S)-4-((S)-2-(methylamino)propanamido)-5-oxo-N—((R)-1,2,3,4-tetrahydronaphthalen-1-yl)-2,3,4,5,7,11b-hexahydropyrido[4′,3′:3,4]pyrrolo[2,1-b][1,3]oxazepine-7-carboxamide dihydrochloride]	> 50%
CN[C@@H](C)C(=O)N[C@H]1CCO[C@H]2CC(CCc3ccccc3)(CCc3ccccc3)[C@H](C(=O)N[C@@H]3CCCc4ccccc43)N2C1=O [Compound 22, (4S,9aS)-4-((S)-2-(methylamino)propanamido)-5-oxo-8,8-diphenethyl-N—((R)-1,2,3,4-tetrahydronaphthalen-1-yl)octahydropyrrolo[2,1-b][1,3]oxazepine-7-carboxamide hydrochloride]	0 to 25%
CN[C@@H](C)C(=O)N[C@H]1CCO[C@H]2CC(C)(C)[C@@H](CN[C@@H]3CCOc4ccccc43)N2C1=O [Compound 73, (S)—N-((4S,7S,9aS)-7-((((R)-chroman-4-yl)amino)methyl)-8,8-dimethyl-5-oxooctahydropyrrolo[2,1-b][1,3]oxazepin-4-yl)-2-(methylamino)propanamide dihydrochloride]	26 to 50%
